Legend:
[1] = tested on: TNFα release from BV2 microglial cells; assay: TNFα ELISA in LPS-stimulated BV2 cells; format: cell-based, mouse; details: free glibenclamide 10 to 80 μM for 60 h, then LPS for 8 h
Protocol: (§1) BV2 microglial cells, RAW264.7 and Neuro2A (N2A) cells were cultured in DMEM supplemented with 10% heat-inactivated FBS, 100 U/mL penicillin and 100 μg/mL streptomycin at 37 °C in a humidified 5% CO2 atmosphere. The day before the experiment, BV2 cells were plated on 24 well plates at 80,000 cells/well; LPS was dissolved in PBS as a stock solution (1 mg/mL), and stored at −20 °C. BV2 cells seeded into multiplates were exposed to LPS (0.5 µg/mL) in presence or absence of glibenclamide (40 µM), empty mApoE-MSLP1-liposomes and mApoE-MSLP1 loaded with glibenclamide. Cells were left in vitro for 40 or 60 h, treated with LPS for additional 8 h before using supernatants for an ELISA assessment of TNFα and IL-6. BV2 cells were seeded in 24-well plates at 80,000 cells/well, then treated with LPS (0.5 µg/mL) to induce TNFα and IL-6 production. Cells were treated for 8 h. Cytokine levels in cells supernatants collected before and after treatment were assayed using the mouse TNF-alpha DuoSet ELISA (R&D Systems, DY410) and the mouse IL-6 DuoSet ELISA kit (R&D Systems, DY406), according to manufacturer’s instructions.

[2] = tested on: primary neurons; assay: CCK8 cell viability assay on primary neurons; format: cell-based; details: primary mouse cortical neurons, 16 days in vitro; 24 h; 0.085, 0.85, 8.5 and 85 µM glibenclamide; compared with DMSO controls
Protocol: C57BL6J mice were maintained under pathogen-free conditions at San Raffaele Hospital mouse facility (Milan, Italy). Procedures were performed according to the guidelines of the Institutional Animal Care and Use Committee of the San Raffaele Scientific Institute and the Ministry of Health (protocol number 372/2021-PR). Primary neuronal cell cultures were established from C57Bl/6J E17.5 embryonic cerebral cortices (Charles River), according to our published protocol. Briefly, we dissected forebrains in cold HBSS supplemented with 0.6% glucose and 5 mM HEPES pH 7.4 to obtain cerebral cortices. Cortices were mechanically dissociated in single cell preparations and re-suspended in culture medium containing Neurobasal, 5 mM HEPES pH 7.4, 0.6% glucose and the 1× B27 supplement. Cells were plated at 30,000 cells/well on 96 multi wells previously coated with poly lysine (0.2 mg/mL), and primed with Dulbecco’s modified Eagle’s media (DMEM) 20% FBS. Cells were maintained in a humidified 5% CO2/95% air environment at 37 °C. […] Cell viability was measured using the Cell Counting Kit-8 (CCK8) Metabolic Assay Kit, following the manufacturer’s protocol (Sigma-Aldrich, Burlington, VT, USA). […] We measured samples absorbance every 30 min at 450 nm, using a Multiskan Sky (Thermo fisher scientific, Waltham, MA, USA). Absorbance readings were subsequently normalized to the mean value of the controls.

[3] = tested on: primary neurons; assay: LDH-Glo cytotoxicity assay on primary neurons; format: cell-based; details: primary mouse cortical neurons; 24 h; 0.085, 0.85, 8.5 and 85 µM glibenclamide; supernatants
Protocol: Primary neuronal cell cultures were established from C57Bl/6J E17.5 embryonic cerebral cortices (Charles River), according to our published protocol [37]. Briefly, we dissected forebrains in cold HBSS supplemented with 0.6% glucose and 5 mM HEPES pH 7.4 to obtain cerebral cortices. Cortices were mechanically dissociated in single cell preparations and re-suspended in culture medium containing Neurobasal, 5 mM HEPES pH 7.4, 0.6% glucose and the 1× B27 supplement. Cells were plated at 30,000 cells/well on 96 multi wells previously coated with poly lysine (0.2 mg/mL), and primed with Dulbecco’s modified Eagle’s media (DMEM) 20% FBS. […] Neurons were left to mature for 16 days, and upon visual inspection were used for cytotoxicity assays.
A bioluminescent lactate dehydrogenase (LDH)-release assay (LDH-Glo Cytotoxicity Assay, Promega) was used to assess cytotoxicity in supernatants of cells treated with liposomes according to manufacturer’s instruction. […] In each experiment, we calculated the % of cytotoxicity as follows:(Exp.LDH Release − MB)/(Max LDH Release Control − MB)(2) where MB is Medium Background.

[4] = tested on: IL-6 release from BV2 microglial cells; assay: IL-6 ELISA in LPS-stimulated BV2 cells; format: cell-based, mouse; details: free glibenclamide 10 to 80 μM for 60 h, then LPS for 8 h
Protocol: as §1, with “BV2 cells seeded into multiplates were exposed to LPS (0.5 µg/mL) in presence or absence of glibenclamide (40 µM), empty mApoE-MSLP1-liposomes and mApoE-MSLP1 loaded with glibenclamide.” left out

[5] = target: T1, Recombinant human MMP2 (Homo sapiens, UniProt P08253); assay: MMP2 activity assay on MSLPs (HPLC); format: biochemical; details: 48 h, 37 °C, 0.1 μg/mL rhMMP2, 100 μM MSLP, 50 mM Tris, 10 mM CaCl2, 150 mM NaCl, 0.05% Brij 35, pH 7.5
T1 construct: purchased R&D Systems
T1 sequence (P08253 110-660): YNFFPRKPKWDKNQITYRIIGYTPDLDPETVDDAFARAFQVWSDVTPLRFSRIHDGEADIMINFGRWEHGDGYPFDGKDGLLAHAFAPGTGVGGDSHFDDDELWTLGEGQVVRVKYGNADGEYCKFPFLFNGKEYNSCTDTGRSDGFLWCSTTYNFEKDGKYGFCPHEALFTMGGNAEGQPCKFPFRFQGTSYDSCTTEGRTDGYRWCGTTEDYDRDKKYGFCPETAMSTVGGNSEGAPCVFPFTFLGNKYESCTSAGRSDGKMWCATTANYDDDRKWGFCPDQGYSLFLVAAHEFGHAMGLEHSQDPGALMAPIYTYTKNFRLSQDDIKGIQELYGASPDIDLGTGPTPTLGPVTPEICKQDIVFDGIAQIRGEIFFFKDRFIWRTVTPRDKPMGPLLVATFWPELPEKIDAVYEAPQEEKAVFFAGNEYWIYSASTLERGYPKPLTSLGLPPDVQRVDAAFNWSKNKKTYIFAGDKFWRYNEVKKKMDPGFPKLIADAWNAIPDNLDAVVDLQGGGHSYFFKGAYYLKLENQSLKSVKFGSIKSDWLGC
Protocol: (§2) Recombinant human MMP2 (rhMMP2, R&D system, Minneapolis, MN, USA) was diluted to 0.2 μg/mL in 200 µL assay buffer (50 mm Tris, 10 mM CaCl2, 150 mm NaCl, 0.05% (w/v) Brij 35, pH 7.5). The enzymatic reaction was started by adding 200 μL of 200 μM MSLPs in the assay buffer, and was stirred at 37 °C for 48 h. Final concentrations were 0.1 μg/mL for MMP2 and 100 μM for MSLPs. The reaction was monitored by HPLC between 1 and 48 h on a small aliquot, by deactivating the enzyme with a 10% aqueous TFA solution. MSLPs’ solutions in assay buffer (see below) were used as a blank. A pronase/unspecific protease activity assay on MSLPs was carried out by diluting a mixture of proteolytic enzymes at 2 ng/mL, 0.2 µg/mL and 20 µg/mL in 200 µL assay buffer (50 mm Tris, 10 mm CaCl2, 150 mm NaCl, 0.05% (w/v) Brij 35, pH 7.5). The enzymatic reaction was started by adding 200 μL of 200 μM MSLPs in the assay buffer, and was stirred at 37 °C for 48 h. Final concentrations of 1 ng/mL, 0.1 μg/mL and 10 μg/mL (Pronase) and 100 μM (MSLPs) were used. The reaction was monitored by HPLC between 1 and 48 h on a small aliquot, by deactivating the enzymes with a 10% aqueous TFA solution. MSLPs’ solutions in assay buffer were used as a blank.

[6] = tested on: pronase; assay: Pronase/unspecific protease activity assay on MSLPs (HPLC); format: biochemical; details: 100 μM MSLP, 37 °C, up to 48 h, assay buffer pH 7.5
Protocol: as §2

## COc1ccc(Cl)cc1C(=O)NCCc1ccc(S(=O)(=O)NC(=O)NC2CCCCC2)cc1 [glibenclamide]
[1]
  TNFα levels: dose-dependent reduction
[2]
  cell viability (CCK8): did not affect cell viability
[3]
  cytotoxicity (LDH release): did not increase cytotoxicity
[4]
  IL-6 levels: dose-dependent reduction

## SKK(stearate)GSALGQIGPSK(stearate)KS [c-MSLP]
[5]
  HPLC peak of lipopeptide after incubation with MMP2: still present

## SKK(stearate)SGAKPRA-LTASK(stearate)KS [MSLP-2, MMP2/9-responsive lipopeptide with two stearate tails]
[6]; 10 μg/mL pronase
  cleavage by pronase: complete cleavage
[6]; lower pronase concentrations (1 ng/mL, 0.1 μg/mL)
  change of intensity of HPLC peak with pronase: no significant change
[5]
  HPLC peak of lipopeptide after incubation with MMP2: still present

## SKK(stearate)SGPLGIAGQSK(stearate)KS [MSLP-1, MMP2-responsive lipopeptide with two stearate tails]
[5]
  HPLC peak of lipopeptide after incubation with MMP2: completely disappeared
